Target: T1, Exon1-Q46 protein aggregates (MBP-HTT(1-89)Q46-His(6×)) (Homo sapiens, UniProt P42858, INS38QQQQQQQQQQQQQQQQQQQQQQQQQ)
T1 construct: MBP-HTT(1-89)Q46-His(6×); MBP (N, cleaved yes); His(6×) (C); made in house
Test: Exon1-Q46 radioligand binding assay (RBA)
Conditions: displacement of 0.3 nM [3H3-methyl]-5-((5-methoxypyridin-2-yl)methoxy)-2-(pyrazin-2-yl)benzo[d]oxazole; 1 μM Exon1-Q46 aggregates; read-out: Potency Range
Procedure: Exon1-Q46 Radioligand Binding Assay
For radioligand binding assays (RBA), MBP-HTT(1-89)Q46-His(6×) (“Exon1-Q46”) protein was generated based on a previous publication (Scherzinger et al. Cell, Vol. 90, 549-558, Aug. 8, 1997). For experiments, 30 μM MBP-Exon1-Q46 was incubated with 150 μg/mL thrombin in assay buffer (150 mM NaCl, 50 mM Tris pH 8.0) and 2 mM CaCl2 for 16 hours at 37° C. Aggregated Exon1-Q46 was pelleted by centrifugation for 5 minutes at 13,000 rpm in a bench top centrifuge and re-dissolved in the same volume of assay buffer. Test compounds were prepared by titration in DMSO at 11 concentrations from 63 μM to 2 nM. For the RBA, Exon1-Q46 protein aggregates and test compounds were pre-incubated in assay buffer for 20 minutes at room temperature, in 100 μL/well in a 96-well plate (pp, round bottom). Then, ligand was added in 50 µL/well and incubated for 60 minutes at 37° C. Final assay concentrations were […] test compound, 1 μM Exon1-Q46 protein (equivalent monomer concentration), and 0.3 nM ligand [^3H3-methyl]-5-((5-methoxypyridin-2-yl)methoxy)-2-(pyrazin-2-yl)benzo[d]oxazole. Samples were transferred onto GF/B filter plates and washed 2× with 200 μL PBS using a Filtermate Harvester. After drying filter plates for 1 hour at 55° C., the back of the plates were sealed with foil and 30 μL/well scintillation fluid (Packard MicroScint 40) added, incubated for 15 minutes in the dark, and counted in a MicroBeta reader. For analysis, replicate data from independent assay plates were normalized towards 0% and 100% inhibition using control wells of vehicle (0% inhibition) and […] unlabelled [^3H3-methyl]-5-((5-methoxypyridin-2-yl)methoxy)-2-(pyrazin-2-yl)benzo[d]oxazole (100% inhibition). IC50 values were determined with a sigmoidal inhibition model with four variables (top, bottom, slope, IC50) in a global fit using the normalized replicate data.
The results for various example compounds were as provided in the table below (+++<100 nM; ++100-500 nM; +>500 nM; ND: not determined): […]

T1 sequence (P42858 with tags, fused parts or gaps with the stated changes limits assumed): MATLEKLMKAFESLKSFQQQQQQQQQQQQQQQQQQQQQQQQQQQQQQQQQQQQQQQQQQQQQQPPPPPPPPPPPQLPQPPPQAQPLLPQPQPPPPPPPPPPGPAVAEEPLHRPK

| Compound | IC50 [nM] |
| --- | --- |
| [2H]C([2H])(F)C([2H])([2H])Oc1ccc(COc2cnc3oc(-c4cc(C)ncn4)nc3c2)nc1 [Compound 1-1, 6-((5-(2-Fluoroethoxy-1,1,2,2-d4)pyridin-2-yl)methoxy)-2-(6-methyl-pyrimidin-4-yl)oxazolo[5,4-b]pyridine] | < 100 |
| Cc1ccc(S(=O)(=O)OCCOc2ccc(COc3cnc4oc(-c5cc(C)ncn5)nc4c3)nc2)cc1 [Compound 1-2, 2-((6-(((2-(6-Methylpyrimidin-4-yl)oxazolo[5,4-b]pyridin-6-yl)oxy)-methyl)pyridin-3-yl)oxy)ethyl 4-methylbenzenesulfonate] | < 100 |
| COc1cnc(COc2cnc3oc(-c4cc(C)ncn4)nc3c2)c(F)c1 [Compound 1-3, 6-((3-Fluoro-5-methoxypyridin-2-yl)methoxy)-2-(6-methylpyrimidin-4-yl)oxazolo[5,4-b]pyridine] | < 100 |
| COc1ccc(COc2cnc3oc(-c4ccnc(C)n4)nc3c2)nc1 [Compound 2-1] | < 100 |
| COc1ccc(COc2cnc3oc(-c4cc(OCCF)ncn4)nc3c2)nc1 [Compound 3-1, 4-(2-Fluoroethoxy)-6-{6-[(5-methoxypyridin-2-yl)methoxy]-[1,3]oxazolo[5,4-b]pyridin-2-yl}pyrimidine] | < 100 |
| COc1ccc(COc2cnc3oc(-c4cc(C)ncn4)nc3c2)nc1 [Compound 4-1, 4-{6-[(5-Methoxypyridin-2-yl)methoxy]-[1,3]oxazolo[5,4-b]pyridin-2-yl}-6-methylpyrimidine] | < 100 |
| Cc1cc(-c2nc3cc(OCc4ccc(OCCF)cn4)cnc3o2)ncn1 [Compound 5-1, 6-((5-(2-Fluoroethoxy)pyridin-2-yl)methoxy)-2-(6-methylpyrimidin-4-yl) oxazolo[5,4-b]pyridine] | < 100 |
| C=CCOc1ccc(COc2cnc3oc(-c4cc(C)ncn4)nc3c2)nc1 [Compound 5-2, 6-((5-(Allyloxy)pyridin-2-yl)methoxy)-2-(6-methylpyrimidin-4-yl) oxazolo[5,4-b]pyridine] | < 100 |
| Cc1cc(-c2nc3cc(OCc4ccc(OCF)cn4)cnc3o2)ncn1 [Compound 5-3, 6-((5-(Fluoromethoxy)pyridin-2-yl)methoxy)-2-(6-methylpyrimidin-4-yl) oxazolo[5,4-b]pyridine] | < 100 |

Source: patent publication US12606570B2, “Deuterated compounds and imaging agents for imaging huntingtin protein” (CHDI Foundation, Inc., priority 2021, dated 2026)
